Several values for one entry are separate records, joined by “and”; a condition that tells them apart may be missing. Identical values can stand only once. Like-named read-outs stand apart in the source and are kept apart here.
Columns and labels:
[1] = test system: THP-1 cells; assay: Intracellular accumulation in uninfected THP-1 cells (LC-MS/MS); details: 5 μg/ml of each compound, 48 h
[2] = in vitro; details: human
[3] = test system: THP-1 cells; details: human, 5 μg/ml
[4] = THP-1 cell viability during accumulation experiment (trypan blue); details: human
[5] = test system: M. smegmatis-infected THP-1 cells
[6] = test system: M. tuberculosis H37Rv; assay: Intracellular efficacy (CFU plating) in M. tuberculosis-infected THP-1 cells; format: cell-based, Mycobacterium tuberculosis; details: M. tuberculosis H37Rv-infected THP-1 cells, 20× MIC, 96-h assay; for decrease in bacterial count from starting count: given as size of decrease; for change in bacterial count compared to starting bacterial count: signed value
[7] = test system: M. tuberculosis H37Rv; details: cited from earlier work
[8] = test system: M. tuberculosis; assay: Two-dimensional checkerboard synergy assay; format: cell-based, Mycobacterium tuberculosis; details: PhX1/WHN296 combination
[9] = male, C57BL/6, mouse, in vivo, po, 10 mg/kg
[10] = test system: M. smegmatis; format: cell-based, Mycobacterium smegmatis
[11] = PhX1 concentrations in murine plasma, epithelial lining fluid and alveolar macrophages (BAL procedure, LC-MS/MS); details: mice; for Kp / AUC / Cmax: male, C57BL/6, mouse, in vivo, 10 mg/kg; for AUC: 24 h
[12] = test system: M. tuberculosis-infected THP-1 cells; details: 20× MIC
Experimental: An intracellular accumulation ratio, defined as the intracellular compound concentration divided by the extracellular concentration, was used in this study to allow comparison between compounds (Fig. 5B).
The intracellular accumulation of the combination of PhX1 and WHN296 in the M. tuberculosis-infected THP-1 cell model was evaluated using quantitative LC-MS/MS at time points of 24, 48, 72, and 96 h (n = 3 for each time point). In this experiment, intracellular drug concentrations are reported in ng/ml to allow comparisons to be made with the minimum compound levels required to achieve synergy.
THP-1 cells were grown in RPMI medium containing 10% FCS at 37°C in 5% CO2. Cells were seeded and differentiated according to the above protocol for 24 h using PMA. M. tuberculosis (H37RvMa) cells were grown to mid-log phase in 7H9 medium. THP-1 cells were infected at an MOI of 5. Following 3 h of infection, wells were washed with RPMI medium to remove extracellular bacteria and dead cells. RPMI medium containing a predetermined concentration of compound was added to each well in triplicate. The solution was allowed to equilibrate for 30 min. In addition, three wells were left without drug treatment (following M. tuberculosis infection) and served as untreated controls, while an additional three wells of THP-1 cells were left uninfected and were used as uninfected controls. Thereafter, at each time point, cells were washed with RPMI medium. This was followed by the addition of EDTA (5 mM), after which 5 min was allowed for the cells to detach. Trypan blue-stained cells were counted using the automated cell counter. The remaining supernatant (150 μl) was added directly to an Eppendorf tube containing chloroform/methanol (3:1, vol/vol) and 1 μg/ml of compound-specific internal standard (deuterated internal standard for known anti-TB compounds and carbamazepine for novel compounds). […] Samples were processed using quantitative LC-MS/MS assays. […] These were then used to construct calibration curves, which were subsequently used to quantitate the amount of analyte in each respective sample.

[13] = cited from earlier work
[14] = cited from earlier work; remark: listed apart in the source

O=C(NN=C(c1ccccn1)c1ccccn1)c1ccncc1 [DPINH]
Equilibrium level reached (intracellular concentration) [1]: 1,280 ± 113.1 ng/ml

C[C@H]1COc2c(N3CCN(C)CC3)c(F)cc3c(=O)c(C(=O)O)cn1c23 [Levofloxacin, levofloxacin]
viability at 48 h, 5 μg/ml [2]: 95 ± 4.2%
Equilibrium level reached (intracellular concentration) ([3]; 48 h): 860 ± 56.5 ng/mL

CCN(CC)c1ccc2nc3c4ccccc4/c(=N\c4ccccc4)cc-3oc2c1 [PhX1]
viability at 48 h, 5 μg/ml [4]: 92 ± 5.8%
intracellular accumulation compared among phenoxazines [5]: significantly higher than those of the majority of the other phenoxazines
time to steady state of accumulation ([5]; human): 2 h
decrease in bacterial count from starting count [6]: 0.8 log10CFU/ml
change in bacterial count compared to starting bacterial count [6]: −0.8 log10CFU/ml
Equilibrium level reached (intracellular concentration) [1]: 4,750 ± 127.2 ng/ml
MIC90 ([7]; M. tuberculosis H37Rv in vitro): 0.19 µM and 0.194 µM
increase in efficacy against in vitro M. tuberculosis over PhX6 ([7]; PhX1 vs PhX6): 2 fold
MIC90 ([7]; line printed in Fig 2): 0.089 µg/mL
minimum value required to produce synergy (2D-synergy level) [8]: 153.1 ng/mL
time plasma concentration above M. tuberculosis MIC90 [9]: approximately 6 h
change in M. smegmatis-associated green fluorescence [10]: no significant change
Kp ([11]; ELFAUC/plasmaAUC): 1.7
AUC ([11]; po, AUC in epithelial lining fluid cells (alveolar macrophages), 10 mg/kg oral, ELF cells): 5020 ng·h/mL
AUC ([11]; po, AUC in epithelial lining fluid, 10 mg/kg oral, ELF): 2090 ng·h/mL
AUC ([11]; po, AUC in plasma, 10 mg/kg oral, plasma): 1170 ng·h/mL
Cmax ([11]; po, Cmax in epithelial lining fluid cells (alveolar macrophages), 10 mg/kg oral, ELF cells): 895 ± 23 ng/mL
Cmax ([11]; po, Cmax in epithelial lining fluid, 10 mg/kg oral, ELF): 452 ± 22 ng/mL
Cmax ([11]; po, Cmax in plasma, 10 mg/kg oral, plasma): 200 ± 75 ng/mL
Kp ([11]; po, ELF AUC relative to plasma, 10 mg/kg oral): ~2
Kp ([11]; po, ELF cell AUC relative to plasma, 10 mg/kg oral): ~4
ELF cell AUC relative to epithelial lining fluid ([11]; 10 mg/kg oral): 2 fold
time above MIC90 in epithelial lining fluid ([11]; 10 mg/kg oral, ELF): 8 h
log ratio of epithelial lining fluid to plasma concentration ([11]; single-point values such as Cmax): 0.65

CCN(CC)c1ccc2nc3c4ccccc4c(=Nc4ccccn4)cc-3oc2c1 [PhX6]
intracellular accumulation compared among phenoxazines [5]: only compound accumulating to higher levels

CCCCCCCCCCOc1cc2c(=O)c(C(=O)NCCOCCO)cn(CC)c2cc1OCC [RMB041]
intracellular accumulation ratio (intracellular/extracellular concentration) [12]: 0.25
decrease in bacterial count from starting count [6]: 0.1 log10CFU/ml
MIC90 ([7]; M. tuberculosis H37Rv in vitro): 1.61 µM
viability at 48 h, 5 μg/ml [2]: 97 ± 2.5%
Equilibrium level reached (intracellular concentration) ([3]; 48 h): 953.5 ± 28.2 ng/mL

CC(C)=CCC/C(C)=C/CN1CCN([C@@H]2O[C@@H]3O[C@@]4(C)CC[C@H]5[C@H](C)CC[C@@H]([C@H]2C)[C@@]35OO4)CC1 [WHN296]
MIC90 ([7]; M. tuberculosis H37Rv in vitro): 18 µM
viability at 48 h, 5 μg/ml [2]: 98 ± 1.2%
Equilibrium level reached (intracellular concentration) ([3]; 48 h): 613.5 ± 19.2 ng/mL

COc1nc2ccc(Br)cc2cc1[C@@H](c1ccccc1)[C@@](O)(CCN(C)C)c1cccc2ccccc12 [bedaquiline]
intracellular accumulation ratio (intracellular/extracellular concentration) [12]: 5.5
decrease in bacterial count from starting count [6]: 1.5 log10CFU/ml
change in bacterial count compared to starting bacterial count [6]: −1.5 log10CFU/ml
viability at 48 h, 5 μg/ml [2]: 93 ± 4.9%
time to reach equilibrium level / steady state [3]: ≤ 30 min
Equilibrium level reached (intracellular concentration) ([3]; 48 h): 4,410 ± 190.9 ng/ml
equilibrium level (intracellular) ([3]; 48 h): greater than 4 μg/ml

CCc1cc(C(N)=S)ccn1 [ethionamide]
log ratio ELF/plasma ([13]; in vivo): 2.8

NNC(=O)c1ccncc1 [isoniazid]
log ratio ELF/plasma ([13]; in vivo): 1

CC(=O)NC[C@H]1CN(c2ccc(N3CCOCC3)c(F)c2)C(=O)O1 [linezolid]
viability at 48 h, 5 μg/ml [2]: 92 ± 3.1%
log ratio ELF/plasma [13]: 0.7
time to reach equilibrium level / steady state [3]: ≤ 15 min
Equilibrium level reached (intracellular concentration) ([3]; 48 h): 770 ± 14.1 ng/mL

COc1c(N2C[C@@H]3CCCN[C@@H]3C2)c(F)cc2c(=O)c(C(=O)O)cn(C3CC3)c12 [moxifloxacin]
intracellular accumulation ratio (intracellular/extracellular concentration) [12]: 5.4
decrease in bacterial count from starting count [6]: approximately 0.5 log10CFU/ml
change in bacterial count compared to starting bacterial count [6]: −0.5 log10CFU/ml
Cmax in epithelial lining fluid ([14]; human, in vivo): approximately 10 μg/ml
plasma Cmax ([14]; human, in vivo): approximately 4 μg/ml
concentration in plasma at the 24-h time point ([14]; once-off 400 mg oral dose, healthy volunteers): 5000 ng/mL
viability at 48 h, 5 μg/ml [2]: 87 ± 2.7%
log ratio ELF/plasma [13]: 1.5
Equilibrium level reached (intracellular concentration) ([3]; 48 h): 3,374 ± 48.7 ng/ml

NC(=O)c1cnccn1 [pyrazinamide]
log ratio ELF/plasma ([13]; in vivo): 3.2

CO[C@H]1/C=C/O[C@@]2(C)Oc3c(C)c(O)c4c(O)c(c(/C=N/N5CCN(C)CC5)c(O)c4c3C2=O)NC(=O)/C(C)=C\C=C\[C@H](C)[C@H](O)[C@@H](C)[C@@H](O)[C@@H](C)[C@H](OC(C)=O)[C@@H]1C [rifampin]
decrease in bacterial count from starting count [6]: approximately 1.5 log10CFU/ml
change in bacterial count compared to starting bacterial count [6]: −1.5 log10CFU/ml
maximum concentration in epithelial lining fluid ([14]; human, in vivo): approximately 2 μg/ml
viability at 48 h, 5 μg/ml [2]: 89 ± 2.4%
log ratio ELF/plasma ([13]; in vivo): 0.7
Equilibrium level reached (intracellular concentration) ([3]; 48 h): 3,050 ± 62.9 ng/ml

Reference: PMC8557888, “Intracellular Accumulation of Novel and Clinically Used TB Drugs Potentiates Intracellular Synergy” (Microbiology Spectrum, 2021)
